Entries after “also recorded” stand apart in the source; their conditions may differ.
What was measured:
[1] = Deiodination assay: deiodination of T4 by DIO3 mimic compound A; assay type: biochemical; settings: for inhibition of the deiodinase activity (deiodination of T4) of DIO3 mimic compound A: 100 mM phosphate buffer pH 7.5, 10 mM DTT, 37° C., rT3 formation by HPLC; for IC50 for inhibiting the DIO3 mimic: mimic used in micromolar concentrations, FIG. 5
Experimental: The deiodination of thyroxine by compound A (a DIO3 mimetic; FIGS. 2 and 3) in the presence of various thiourea derivatives was studied. When the commonly used antithyroid drugs such as thiourea derivatives (e.g., 6-n-propyl-2-thiouracil (PTU), 6-methyl-2-thiouracil (MTU) and 1-methyl-3H-imidazole-2-thione or methimazole (MMI)) were used, no inhibition of the deiodinase activity was observed.
The deiodination reactions were carried out in 100 mM phosphate buffer (pH 7.5) with 10 mM dithiothreitol (DTT) at 37° C. Diselenol (Compound A) was freshly prepared by reducing the corresponding diselenide, with NaBH4 prior to use. The reaction products were analyzed by reverse-phase HPLC (Lichrospher C18 column, 4.6 μm, 150 mm×5 mm) with gradient elution using acetonitrile/ammonium acetate (pH 4.0) as the mobile phase. The formation of rT3 was monitored at λ=275 nm and the amounts of deiodinated products formed in the reactions in the presence or absence of test compounds were calculated by comparing the peak areas.

[2] = Water solubility (qualitative comparison); assay type: physicochemical; settings: compared with PBENZ (compound 4)
[3] = tested on: OVCAR3 cells; test: OVCAR3 cell viability by WST-1 assay; assay type: cell-based, Human; settings: OVCAR3, 0.5 μM, 48 h
Experimental: (§1) Cell lines: Human ovarian adenocarcinoma cells employed in the study were OVCAR-3 (ATCC HTB-161), A2780 (Sigma Aldrich) and SKOV-3 (ATCC HTB-77). Human normal embryonic kidney cells, HEK 293 (ATCC CRL1573) were used. All cells were cultured in RPMI1640 supplemented with 10% heat-inactivated FBS and antibiotics. Before conducting an experiment, cells were cultured for 24 h in RPMI1640 supplemented with 1.5% heat-inactivated charcoal stripped FBS and antibiotics.
Viability: WST-1 (Roche; 10% final concentration) was incubated with cells at 37° C. for 2 h and read with a MicroELISA reader at 440 nm.
(§2) OVCAR3 cells were collected and seeded in 96 well plates (10,000/well). The six compounds were then dissolved in DMSO and added to a final 0.5 μM concentration for 48 h of incubation. After incubation the cells were imaged by light microscopy (FIG. 13B). […] These cells were then examined for cell viability by WST-1 assay (FIG. 13C).

[4] = Serum and brain thyroid hormone levels after 3 weeks ICV administration by osmotic minipumps; assay type: in vivo, BALB/c mice; settings: mice; for change in brain free T3 levels (in words): one sided non-paired t test; for Serum Free T3, Mean / Serum Free T4, Mean / Brain Free T3, Mean / Brain Free T4, Mean: ICV by osmotic minipump for 3 weeks, IOP 2 mg/kg, ITYR 5 mg/kg; for Serum Free T3, Mean: vehicle 14.45; for Serum Free T4, Mean: vehicle 36.05; for Brain Free T3, Mean: vehicle 72.74; for Brain Free T4, Mean: vehicle 250.54
Experimental: Deaths were related to the surgical procedure.
At the end of the tests, animals were anesthetized with veterinary Pental (13.333 mg/kg) and cardiac blood was drawn for peripheral T3 (triiodothyronine) and T4 (thyroxine) levels. Brains were harvested for evaluating brain T3, T4 levels. Hormone levels in the sera and brains were measured by SunLong Biotech Mouse Ultrasensitivity total and free T3 and T4 ELISA Kits, employing producing a standard curve followed by actual measurement, in which OD levels obtained by spectrophotometer were converted, using the standard curve, to pg/ml values.

[5] = Novelty suppressed feeding test (NSFT) after 3 weeks ICV administration; settings: mice, ICV 3 weeks, compared to vehicle; ANCOVA with brain T3 as covariate
Experimental: The intra-cerebroventricular injection was performed via a cannula inserted as follows: first, for the chronic administration of compounds or vehicle, osmotic minipumps (Alzet model 1004 for up to 28 days administration) were employed. Empty minipumps were filled under sterile conditions with 0.1 ml of PBS or with PBS containing either one of the DIO3 inhibitors and then connected to brain infusion kits. The filled minipumps connected to the brain infusion kits were than primed in an incubator at 37° C. before being implanted into the animals. At the surgery itself, each mouse was anaesthetized by intraparenteral (i.p.) injection of anesthesia. The anesthesia solution was prepared as follows: for each 2 ml of solution, 900 μl ketamine plus 100 μl xylazine 2% was supplemented with 1000 μl of 0.9% NaCl saline solution. 70 μl of the anesthesia solution was administered i.p to a 20 gram (about 100 μl for 30 gram) weighing animal. […]
After the last treatment administration, all food was removed from the cage for 24 hours (water was available ad libitum). […] Time elapsing from the introduction of the animal into the arena until it commences eating (latency to feed), total distance move, velocity and time spent in the arena periphery (lateral 10 cm on each side) and center were recorded. […] The mean of the two ratings was calculated and used for the statistical analysis.

[6] = tested on: OVCAR3 cells; test: OVCAR3 cell density and morphology by light microscopy; assay type: cell-based, Human; settings: OVCAR3, 0.5 μM, 48 h
Experimental: as §1
Microscopy: The cells were visualized using a microscope equipped with a camera (model IX71; Olympus) with a 20_/0.50 objective lens and Cell^A (version 3.1) Olympus software imaging.
as §2

[7] = target: T1, DIO1 (Homo sapiens, UniProt P49895); settings: cited from earlier work
T1 sequence (P49895 1-249): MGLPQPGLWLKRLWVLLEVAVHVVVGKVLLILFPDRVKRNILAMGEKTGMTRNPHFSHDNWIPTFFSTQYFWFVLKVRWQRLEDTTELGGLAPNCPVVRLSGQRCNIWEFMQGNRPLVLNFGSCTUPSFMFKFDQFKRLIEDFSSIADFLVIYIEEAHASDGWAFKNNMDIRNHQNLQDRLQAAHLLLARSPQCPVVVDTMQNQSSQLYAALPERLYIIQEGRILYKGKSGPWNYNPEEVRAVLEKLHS

[8] = target: T2, DIO3 (Homo sapiens, UniProt P55073); settings: cited from earlier work
T2 sequence (P55073 1-304): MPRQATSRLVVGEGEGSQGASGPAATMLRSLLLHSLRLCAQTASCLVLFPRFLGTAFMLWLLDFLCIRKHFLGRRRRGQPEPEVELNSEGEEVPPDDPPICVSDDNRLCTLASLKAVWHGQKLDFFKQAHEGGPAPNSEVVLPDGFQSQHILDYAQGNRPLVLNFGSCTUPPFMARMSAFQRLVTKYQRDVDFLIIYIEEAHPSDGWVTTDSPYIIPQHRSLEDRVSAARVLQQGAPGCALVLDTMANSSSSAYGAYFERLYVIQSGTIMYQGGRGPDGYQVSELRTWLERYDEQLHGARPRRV

[9] = target: DIO2 (Homo sapiens, UniProt Q92813); settings: cited from earlier work
Sequence of DIO2 (Q92813 whole entry, species assumed): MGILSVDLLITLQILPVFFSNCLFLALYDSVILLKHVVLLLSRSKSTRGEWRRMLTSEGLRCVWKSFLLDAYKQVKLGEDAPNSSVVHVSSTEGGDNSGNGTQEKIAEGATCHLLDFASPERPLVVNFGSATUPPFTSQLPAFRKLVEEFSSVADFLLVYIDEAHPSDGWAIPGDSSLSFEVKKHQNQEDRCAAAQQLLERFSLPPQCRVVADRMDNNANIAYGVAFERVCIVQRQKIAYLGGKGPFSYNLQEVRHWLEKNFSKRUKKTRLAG

With `O=C1C(Br)=C(Br)C(=O)N1Cc1ccccc1` [B, 2,3-dibromo-N-benzylmaleimide] the “inhibition of the deiodinase activity (deiodination of T4) of DIO3 mimic compound A” value (“inhibition of the deiodinase activity” for short) [1] was “inhibit”.
In the case of `O=C(O)C(Cc1ccc(O)cc1)N1C(=O)C(Br)=C(Br)C1=O` (stereo not shown) [Compound 3], the solubility in water [2] is reported as “more soluble in water”, the cell viability [3] is reported as “low reduction in viability” and the “reaction with the DIO3 mimic” value [1] is reported as “react stoichiometrically”. For the same compound, the “inhibition of the deiodinase activity” value [1] was “Inhibition” and the “IC50 for inhibiting the DIO3 mimic” value [1] was “micromolar range”.
For `O=C(O)c1ccc(N2C(=O)C(Br)=C(Br)C2=O)cc1` [Compound 4], the cell viability [3] was “No effect”, the “reaction with the DIO3 mimic” value [1] was “react stoichiometrically” and the “IC50 for inhibiting the DIO3 mimic” value [1] was “micromolar range”.
With `O=C(O)C(Cc1cc(I)c(O)c(I)c1)N1C(=O)C(Br)=C(Br)C1=O` (stereo not shown) [Compound 5] the “change in brain free T3 levels (in words)” value ([4]; ICV 3 weeks, vs. vehicle) was “not significantly increased”, the “Serum Free T3, Mean” value [4] was 12.33 pg/mL and the “Serum Free T4, Mean” value [4] was 37.00 ng/mL. The “Brain Free T3, Mean” value [4] was 81.98 pg/mL, the “Brain Free T4, Mean” value [4] was 262.86 ng/mL and the “latency to feed in the novelty suppressed feeding test” value [5] was “reduced latency to feed”. For the same compound, the “cell density and cell morphology” value [6] was “marked reduction in cell density and deformed cell morphology” and the cell viability [3] was “significant reduction in cell viability”.
With `CCC(Cc1c(I)cc(I)c(N2C(=O)C(Br)=C(Br)C2=O)c1I)C(=O)O` (stereo not shown) [Compound 6] the “increase in brain free T3 levels” value ([4]; ICV 3 weeks, vs. vehicle) was “about 46%”, the “change in brain free T3 levels (in words)” value ([4]; ICV 3 weeks, vs. vehicle) was “significant increase” and the “Serum Free T3, Mean” value [4] was 12.23 pg/mL. The “Serum Free T4, Mean” value [4] was 35.75 ng/mL, the “Brain Free T3, Mean” value [4] was 84.30 pg/mL and the “Brain Free T4, Mean” value [4] was 244.11 ng/mL. For the same compound, the “latency to feed in the novelty suppressed feeding test” value [5] was “reduced latency to feed” and the cell viability [3] was “low reduction in viability”.
With `O=C1C(Br)=C(Br)C(=O)N1CCc1ccc(O)c(O)c1` [Compound 7] the “cell density and cell morphology” value [6] was “marked reduction in cell density and deformed cell morphology” and the cell viability [3] was “significant reduction in cell viability”.
In the case of `O=C(O)CC(C(=O)O)N1C(=O)C(Br)=C(Br)C1=O` (stereo not shown) [Compound 8], the “cell density and cell morphology” value [6] is reported as “marked reduction in cell density and deformed cell morphology” and the cell viability [3] is reported as “significant reduction in cell viability”.
For `CN1C(=O)C(Br)=C(Br)C1=O` [Compound C, 2,3-dibromo-N-methylmaleimide], the “inhibition of the deiodinase activity” value [1] was “inhibit; also recorded: Inhibition”.
In the case of `O=C(O)CI` [IAA, iodoacetic acid], the “inhibition of DIO1” value [7] is listed as “inhibitor”, the “inhibition of DIO3” value [8] is listed as “cannot inhibit” and the “inhibition of DIO2” value [9] is listed as “cannot inhibit”.
With `Cn1cc[nH]c1=S` [MMI, 1-methyl-3H-imidazole-2-thione, reference compound] the “inhibition of the deiodinase activity” value [1] was “no inhibition”.
In the case of `Cc1cc(=O)[nH]c(=S)[nH]1` [MTU, 6-methyl-2-thiouracil], the “inhibition of the deiodinase activity” value [1] is given as “no inhibition”, the “inhibition of DIO1” value [7] is given as “inhibit” and the “inhibition of DIO3” value [8] is given as “do not inhibit”.
In the case of `CCCc1cc(=O)[nH]c(=S)[nH]1` [PTU, 6-n-propyl-2-thiouracil], the “inhibition of the deiodinase activity” value [1] is listed as “no inhibition”, the “inhibition of DIO1” value [7] is listed as “inhibit” and the “inhibition of DIO3” value [8] is listed as “do not inhibit”.

Source: patent publication US11091434B2, “Type III deiodinase inhibitors and uses thereof” (HADASIT MEDICAL RESEARCH SERVICES AND DEVELOPMENT LTD., priority 2014, dated 2021)
